Experimental data published in patent US9029384B2, “Phosphatidylinositol 3-kinase inhibitors” (Gilead Calistoga LLC, priority 2012, dated 2015).
Where two headings read alike, the source gives them in different places.

Columns and labels:
[1] = system: basophils; experiment: Basophil activation in human whole blood (Flow2 CAST kit, CD63 positive cells); assay type: cell-based
How it was run: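 Human whole blood (K2-EDTA) preincubated 60 minutes at 37° C with compound serial dilutions or DMSO (0.3% final), then stimulated with anti-FcεRI mAb or fMLP and stained for CD63/CCR3. Percent CD63+ among ≥200 CCR3-high basophils by flow cytometry, normalized to stimulated vehicle as 100%. EC50 from four-parameter fits, geometric means in nM, concentrations corrected for reagent dilution.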

[2] = Hepatocyte stability, 1% final DMSO, 2 μM substrate (t1/2^a); assay type: in vitro ADME; conditions: human, cryopreserved hepatocytes, TA with 1% final DMSO, 2 μM substrate, samples at 0, 1, 2, 4 hours; read-out: human hepatocyte t½^a
Experimental: This assay was used to evaluate the metabolic stability of test articles (TA) following incubation in cryopreserved hepatocytes by monitoring parent drug disappearance via […]. The TA with 1% final DMSO concentration was incubated with 1 million hepatocytes/ml at 2 μM substrate in duplicate. The incubation was carried out at 37° C. with 5% CO2 and saturating humidity.

[3] = target: T1, PI3Kδ (Homo sapiens, UniProt O00329); experiment: Enzymatic activity of PI3K isoforms, TR-FRET assay (PIP3 formation); assay type: biochemical; conditions: PI3Kδ; TR-FRET, 2×Km ATP, 10 μM PIP2; read-out: IC50
T1 construct: made in house
T1 sequence (O00329 whole entry, canonical isoform): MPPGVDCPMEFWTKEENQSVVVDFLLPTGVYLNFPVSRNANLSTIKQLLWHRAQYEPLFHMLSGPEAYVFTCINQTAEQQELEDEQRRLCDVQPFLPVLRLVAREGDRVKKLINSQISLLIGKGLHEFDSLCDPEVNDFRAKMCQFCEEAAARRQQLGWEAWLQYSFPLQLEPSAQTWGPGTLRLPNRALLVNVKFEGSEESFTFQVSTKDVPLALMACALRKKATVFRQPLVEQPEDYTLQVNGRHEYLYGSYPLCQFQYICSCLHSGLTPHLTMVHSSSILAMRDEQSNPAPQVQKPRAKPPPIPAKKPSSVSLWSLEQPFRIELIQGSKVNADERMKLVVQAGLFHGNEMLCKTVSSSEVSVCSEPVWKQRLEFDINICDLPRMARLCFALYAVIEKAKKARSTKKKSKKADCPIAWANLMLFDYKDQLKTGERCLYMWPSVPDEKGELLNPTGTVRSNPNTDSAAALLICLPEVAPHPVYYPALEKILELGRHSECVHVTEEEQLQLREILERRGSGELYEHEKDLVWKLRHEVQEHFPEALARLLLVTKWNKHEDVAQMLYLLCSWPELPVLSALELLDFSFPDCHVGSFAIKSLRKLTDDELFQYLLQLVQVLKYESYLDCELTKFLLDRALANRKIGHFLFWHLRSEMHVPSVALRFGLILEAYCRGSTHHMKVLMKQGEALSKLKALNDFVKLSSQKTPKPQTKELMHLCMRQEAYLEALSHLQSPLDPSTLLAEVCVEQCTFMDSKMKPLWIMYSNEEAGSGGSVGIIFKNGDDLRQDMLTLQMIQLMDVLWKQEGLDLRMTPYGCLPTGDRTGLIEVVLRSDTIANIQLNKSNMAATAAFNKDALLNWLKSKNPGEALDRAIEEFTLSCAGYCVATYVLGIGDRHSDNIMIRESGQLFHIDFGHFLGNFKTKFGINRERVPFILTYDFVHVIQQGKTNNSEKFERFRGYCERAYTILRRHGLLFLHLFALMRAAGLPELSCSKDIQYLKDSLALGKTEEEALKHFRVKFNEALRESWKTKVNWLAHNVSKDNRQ
T1 sequence (P27986 whole entry partner, canonical isoform): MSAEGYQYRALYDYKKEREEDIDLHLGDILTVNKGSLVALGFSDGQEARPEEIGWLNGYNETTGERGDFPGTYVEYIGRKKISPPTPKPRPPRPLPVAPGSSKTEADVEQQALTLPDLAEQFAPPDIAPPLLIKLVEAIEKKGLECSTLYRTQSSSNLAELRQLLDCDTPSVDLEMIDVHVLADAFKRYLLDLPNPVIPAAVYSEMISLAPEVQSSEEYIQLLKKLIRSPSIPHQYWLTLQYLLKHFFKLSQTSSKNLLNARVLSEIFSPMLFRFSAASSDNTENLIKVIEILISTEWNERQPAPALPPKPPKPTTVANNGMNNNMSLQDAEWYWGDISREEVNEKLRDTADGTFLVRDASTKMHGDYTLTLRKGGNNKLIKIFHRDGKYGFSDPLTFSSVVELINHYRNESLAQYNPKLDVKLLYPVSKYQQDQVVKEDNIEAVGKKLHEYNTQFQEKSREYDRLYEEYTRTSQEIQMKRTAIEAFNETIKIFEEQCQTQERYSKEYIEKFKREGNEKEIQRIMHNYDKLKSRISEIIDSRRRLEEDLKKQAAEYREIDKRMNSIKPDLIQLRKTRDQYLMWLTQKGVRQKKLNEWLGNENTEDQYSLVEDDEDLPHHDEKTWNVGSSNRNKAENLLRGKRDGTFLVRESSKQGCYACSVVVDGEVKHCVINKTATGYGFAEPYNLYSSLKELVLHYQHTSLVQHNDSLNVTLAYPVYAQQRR
How it was run: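 Recombinant heterodimeric class I PI3K; PIP3 product measured by TR-FRET competition with labelled PIP3 for Eu-GRP-1 PH domain. Reaction 30 min at 25 °C, stopped with 10 mM EDTA.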

[4] = Hepatocyte stability, 0.01% final DMSO, 1 μM substrate (t1/2^b); assay type: in vitro ADME; conditions: human, hepatocytes, TA with 0.01% final DMSO
Experimental: Alternatively, assay reagents and/or conditions can be modified in determining the inhibitory activities to PI3K isomers. In additional studies, similar assay using TA and 0.01% final DMSO concentration were incubated with 1 million hepatocytes/mL at 1 μM substrate in duplicate. The incubation was carried out at 37° C. with 5% CO2 and saturating humidity.

[5] = Homo sapiens, basophils activated with anti-FcεRI mAb or fMLP, geometric mean
[6] = 1 μM substrate, samples at 0, 1, 3, 6 hours, read-out: human hepatocyte t½^b

Row | SMILES | EC50 [1, 5] [nM] | half-life at 2 μM [2] [h] | IC50 [3] [nM] | half-life at 1 μM [4, 6] [h] | EC50 ([1]; Homo sapiens, basophil activation) [nM] | half-life at 1 μM ([4]; human hepatocytes, read-out: t1/2^b) [h] | EC50 ([1]; basophils activated with anti-FcεRI mAb or fMLP, geometric mean) [nM]
1 | Cc1ccc(Cl)c2c(=O)n(-c3ccccc3)c(C(C)Nc3nc(N)nc(N)c3C#N)nc12 (single isomer, unassigned) [Compound 4a] | 1 to 10 | 6 to 10 | < 1 |  |  |  | 
2 | Cc1ccc(Cl)c2c(=O)n(-c3cccc(Cl)c3)c(C(C)Nc3nc(N)nc(N)c3C#N)nc12 (single isomer, unassigned) [Compound 5a] | 1 to 10 | 1 to 3 | < 1 |  |  |  | 
3 | CC(Nc1nc(N)nc(N)c1C#N)c1nc2c(F)ccc(Cl)c2c(=O)n1-c1cc(F)cc(F)c1 (single isomer, unassigned) [Compound 15a] | < 1 | 3 to 6 | < 1 |  |  |  | 
4 | Cc1cccc2nc(C(C)Nc3nc(N)nc(N)c3C#N)n(-c3cc(F)cc(F)c3)c(=O)c12 (single isomer, unassigned) [Compound 18a] | < 1 | 3 to 6 | < 1 |  |  |  | 
5 | CCC(Nc1nc(N)nc(N)c1C#N)c1nc2cccc(C)c2c(=O)n1-c1cc(F)cc(F)c1 (single isomer, unassigned) [Compound 19a] | 1 to 10 | 3 to 6 | < 1 |  |  |  | 
6 | CC(Nc1nc(N)nc(N)c1C#N)c1nc2cccc(Cl)c2c(=O)n1-c1cc(F)cc(C#N)c1 (single isomer, unassigned) [Compound 20a] | 1 to 10 | 6 to 10 | 1 to 10 |  |  |  | 
7 | Cc1cccc2nc(C(C)Nc3nc(N)nc(N)c3C#N)n(-c3cc(F)cc(C#N)c3)c(=O)c12 (single isomer, unassigned) [Compound 24a] | 1 to 10 | 6 to 10 | 1 to 10 |  |  |  | 
8 | Cc1ccc(F)c2nc(C(C)Nc3nc(N)nc(N)c3C#N)n(-c3cc(F)cc(F)c3)c(=O)c12 (single isomer, unassigned) [Compound 25a] | < 1 | 1 to 3 | < 1 |  |  |  | 
9 | COCC(Nc1nc(N)nc(N)c1C#N)c1nc2cccc(Cl)c2c(=O)n1-c1cc(F)cc(F)c1 (single isomer, unassigned) [Compound 135a] | 1 to 10 |  | 1 to 10 | 1 to 3 |  |  | 
10 | CC(Nc1nc(N)nc(N)c1C#N)c1nc2ccc(F)c(Cl)c2c(=O)n1-c1cc(F)cc(F)c1 (single isomer, unassigned) [Compound 140a] | 1 to 10 |  | 1 to 10 | 3 to 6 |  |  | 
11 | CC(Nc1nc(N)nc(N)c1C#N)c1nc2cccc(Cl)c2c(=O)n1-c1c(F)cccc1F (single isomer, unassigned) [Compound 145a] | 1 to 10 |  | 1 to 10 | 6 to 10 |  |  | 
12 | CC(Nc1nc(N)nc(N)c1C#N)c1nc2c(F)ccc(F)c2c(=O)n1-c1cccc(C#N)c1 (single isomer, unassigned) [Compound 149a] | 1 to 10 |  | 10 to 50 | 6 to 10 |  |  | 
13 | CCC(Nc1nc(N)nc(N)c1C#N)c1nc2c(F)ccc(F)c2c(=O)n1-c1ccccc1 (single isomer, unassigned) [Compound 150a] | 1 to 10 |  | 1 to 10 | 3 to 6 |  |  | 
14 | CCC(Nc1nc(N)nc(N)c1C#N)c1nc2c(F)ccc(F)c2c(=O)n1-c1cccc(F)c1 (single isomer, unassigned) [Compound 151a] | 1 to 10 |  | 1 to 10 | 3 to 6 |  |  | 
15 | CCC(Nc1nc(N)nc(N)c1C#N)c1nc2c(F)ccc(F)c2c(=O)n1-c1cccc(C#N)c1 (single isomer, unassigned) [Compound 152a] | 1 to 10 |  | 10 to 50 | 3 to 6 |  |  | 
16 | CC(Nc1nc(N)nc(N)c1C#N)c1nc2c(C#N)cc(F)cc2c(=O)n1-c1ccccc1 (single isomer, unassigned) [Compound 155a] | 10 to 50 |  | 1 to 10 | > 10 |  |  | 
17 | CC(Nc1nc(N)nc(N)c1C#N)c1nc2c(C#N)cccc2c(=O)n1-c1cccc(C(F)F)c1 (single isomer, unassigned) [Compound 160a] | 1 to 10 |  | 1 to 10 | 3 to 6 |  |  | 
18 | CCCC(Nc1nc(N)nc(N)c1C#N)c1nc2cccc(F)c2c(=O)n1-c1cc(F)cc(F)c1 (single isomer, unassigned) [Compound 175a] | 1 to 10 |  | 1 to 10 | 6 to 10 |  |  | 
19 | CC(Nc1nc(N)nc(N)c1C#N)c1nc2ccc(F)c(Cl)c2c(=O)n1-c1cccc(C#N)c1 (single isomer, unassigned) [Compound 176a] | 1 to 10 |  | 10 to 50 | > 10 |  |  | 
20 | CCC(Nc1nc(N)nc(N)c1C#N)c1nc2ccc(F)cc2c(=O)n1-c1cccc(F)c1 (single isomer, unassigned) [Compound 178a] | 1 to 10 |  | 1 to 10 | > 10 |  |  | 
21 | CCC(Nc1nc(N)nc(N)c1C#N)c1nc2cccc(F)c2c(=O)n1-c1cccc(F)c1 (single isomer, unassigned) [Compound 179a] | 1 to 10 |  | 1 to 10 | 6 to 10 |  |  | 
22 | CC(Nc1nc(N)nc(N)c1C#N)c1nc2c(F)ccc(Cl)c2c(=O)n1-c1cccc(C#N)c1 (single isomer, unassigned) [Compound 181a] | < 1 |  | 1 to 10 | 6 to 10 |  |  | 
23 | CC(Nc1nc(N)nc(N)c1C#N)c1nc2cccc(F)c2c(=O)n1-c1cccc(F)c1 (single isomer, unassigned) [Compound 182a] | 1 to 10 |  | 1 to 10 | > 10 | < 2 | > 20 | 
24 | CC(Nc1nc(N)nc(N)c1C(N)=O)c1nc2cccc(Cl)c2c(=O)n1-c1ccccc1 (single isomer, unassigned) [Compound 183a] | 10 to 50 |  | < 1 | 6 to 10 |  |  | 
25 | COc1cccc(-n2c(C(C)Nc3nc(N)nc(N)c3C#N)nc3cccc(Cl)c3c2=O)c1 (single isomer, unassigned) [Compound 185a] | < 1 |  | < 1 | 1 to 3 |  |  | 
26 | Cc1ccc(C(F)F)cc1-n1c(C(C)Nc2nc(N)nc(N)c2C#N)nc2cccc(Cl)c2c1=O (single isomer, unassigned) [Compound 188a-2] |  |  | < 1 | 1 to 3 |  |  | < 1
27 | COc1cc(C(F)F)cc(-n2c(C(C)Nc3nc(N)nc(N)c3C#N)nc3cccc(Cl)c3c2=O)c1 (single isomer, unassigned) [Compound 190a] | 10 to 50 |  | 1 to 10 | 1 to 3 |  |  | 
28 | CC(Nc1nc(N)nc(N)c1C#N)c1nc2cccc(Cl)c2c(=O)n1-c1cc(F)cc(OC(F)(F)F)c1 (single isomer, unassigned) [Compound 193a] | 1 to 10 |  | 1 to 10 | 1 to 3 |  |  | 
29 | C[C@H](Nc1nc(N)nc(N)c1C#N)c1nc2cccc(F)c2c(=O)n1-c1cccc(C(F)F)c1 [Compound 121a, (S)-2,4-diamino-6-(1-(3-(3-(difluoromethyl)phenyl)-5-fluoro-4-oxo-3,4-dihydroquinazolin-2-yl)ethylamino)pyrimidine-5-carbonitrile] | 1 to 10 |  | 1 to 10 | 3 to 6 |  |  | 
30 | C[C@H](Nc1nc(N)nc(N)c1C#N)c1nc2c(C#N)cc(F)cc2c(=O)n1-c1cccc(F)c1 [Compound 154a, (S)-2-(1-((2,6-diamino-5-cyanopyrimidin-4-yl)amino)ethyl)-6-fluoro-3-(3-fluorophenyl)-4-oxo-3,4-dihydroquinazoline-8-carbonitrile] | 1 to 10 |  | 1 to 10 | > 10 |  |  | 
